According to PMC5955437, “Antifungal activity of osthol in vitro and enhancement in vivo through Eudragit S100 nanocarriers” (Virulence, 2017):
Like-named read-outs stand apart in the source and are kept apart here.

Assays:
[1] = tested on: clinical isolates of C. albicans resistant to FLC; experiment: Checkerboard microdilution assay (CLSI M27-A2), FLC-resistant clinical isolates; assay type: cell-based, Candida albicans; details: for MIC80: Candida albicans, read-out: MIC80 alone; for MIC80 / MIC80 alone: 24 h, 35 °C; for antifungal activity when tested alone: FLC-resistant isolates, drug alone; for MIC80 in combination: FLC combined with Ost
Procedure: (§1) Eleven clinical isolates of FLC-resistant C. albicans were used in this study, and C. albicans ATCC 90028 was used as a quality control. Drugs prepared in dimethyl sulfoxide (DMSO) included osthol (Shanghai Jianglai Biotechnology Co. Ltd, China) and fluconazole (Pfizer-Roerig Pharmaceuticals, New York, NY).
(§2) Assays were performed on all 11 isolates according to methods of the CLSI (formerly NCCLS) (M27-A2). The concentration of fungus suspension in RPMI 1640 medium was 10^3 CFU/ml, and the final concentration ranged from 0.125 to 64 μg/ml for FLC and 1 to 32 μg/ml for OST. Plates were incubated at 35 °C for 24 h. Optical density was measured at 630 nm and background optical densities were subtracted from each well. MIC80 were defined as the minimum inhibition concentration of the drugs that inhibited growth by 80% when compared with drug-free wells. The fractional inhibitory concentration index (FICI) were defined as the sum of the MIC80 of each drug when used in combination divided by the MIC80 of the drug used alone. Synergism and antagonism were defined by FICIs of≤ 0.5 and >4, respectively. An FICI result of > 0.5 but ≤ 4 was considered indifferent.[43]

C. albicans 103 [2] = experiment: Survival of immunosuppressed mice systemically infected with C. albicans; assay type: in vivo, Candida albicans; details: immunosuppressed ICR mice, 1 × 10^6 CFU i.v.; oral FLC 0.5 mg/kg/day, Ost 150 mg/kg/day, 4 d treatment
Procedure: Sixty female ICR mice (weighing 20–25 g) were prepared in the antifungal study in vivo. We followed the methods of Junius M et al. and Kenneth et al. with a few modifications.[45,46] Briefly, acute infections in immunosuppressed mice, resulting from a 80 mg/kg/day intravenous dose of cyclophosphamide 3 d before infection, then injected with 1 × 10^6 CFU C. albicans in 0.2 ml of saline intravenously. This inoculum was uniformly lethal for placebo-treated animals within a week. After inoculation, the mice were randomly separated into 6 groups (10 animals per group), including saline control group and medication administration groups (FLC, Ost-S100-NP, Ost-suspensions, Ost-suspensions plus FLC, and Ost-S100-NP plus FLC). The dosages of FLC and Ost are 0.5 mg/kg/day and 150 mg/kg/day by oral administration. Therapy was begun 2 hours post infection and last for 4 d. The survival time was calculated from the day 0 since inoculation to the day of death. Survival data were presented as Kaplan-Merier plots and analyzed with a Log-rank Test (SPSS 18; SPSS, Chicago, Illinois). A value of P < 0.05 was considered to be significant.

C. albicans ATCC 90028 = experiment: Checkerboard microdilution assay, quality control strain; assay type: cell-based, Candida albicans; details: ATCC90028; for MIC80 in combination: FLC combined with Ost
Procedure: as §1, §2

C. albicans 103 [3] = experiment: Agar disk diffusion test; assay type: cell-based, Candida albicans; details: for anti-fungal activity, disk on plain agar: Ost alone
Procedure: C. albicans 103 (FLC-resistant isolate with a MIC80 of 64 μg/ml for […]) was tested by agar diffusion assay.[44] A 100 μl of C. albicans 103 in 10^6 CFU/ml suspension was spread uniformly onto the yeast extract-peptone-dextrose agar plate with or without 64 μg/ml FLC. Then, 6-mm paper disks impregnated with Ost and FLC alone or in combination were placed onto the agar surface. There was 5 μl of DMSO in control disks. Inhibition zones were measured after incubation at 35°C for 48 h. Assays were performed in duplicate.

OC(Cn1cncn1)(Cn1cncn1)c1ccc(F)cc1F [FLC, fluconazole, reference compound]
MIC80 ([1]; isolate 32): 64 mg/L | MIC80 ([1]; isolate 100): > 64 mg/L | MIC80 ([1]; isolate 103): > 64 mg/L | MIC80 ([1]; isolate 557): > 64 mg/L | MIC80 ([1]; isolate 842): > 64 mg/L | MIC80 ([1]; isolate 901): > 64 mg/L | MIC80 ([1]; isolate 904): > 64 mg/L | MIC80 ([1]; isolate 953): 64 mg/L | MIC80 ([1]; isolate J5): > 64 mg/L | MIC80 ([1]; isolate J28): > 64 mg/L | MIC80 ([1]; isolate J35): 64 mg/L | antifungal activity when tested alone [1]: weak antifungal activity | MIC80 in combination ([1]; isolate 32): 2 mg/L | MIC80 in combination ([1]; isolate 100): 4 mg/L | MIC80 in combination ([1]; isolate 103): 4 mg/L | MIC80 in combination ([1]; isolate 557): 2 mg/L | MIC80 in combination ([1]; isolate 842): 2 mg/L | MIC80 in combination ([1]; isolate 901): 2 mg/L | MIC80 in combination ([1]; isolate 904): 2 mg/L | MIC80 in combination ([1]; isolate 953): 2 mg/L | MIC80 in combination ([1]; isolate J5): 2 mg/L | MIC80 in combination ([1]; isolate J28): 8 mg/L | MIC80 in combination ([1]; isolate J35): 1 mg/L | average survival day (C. albicans 103 [2]): 8.7 days | MIC80 in combination (C. albicans ATCC 90028): 0.0625 mg/L | MIC80 (C. albicans ATCC 90028; Candida albicans, 35 °C, 24 h, read-out: MIC80 alone): 0.25 mg/L | inhibition, disk on plain agar (C. albicans 103 [3]; FLC alone, 10 μg, 35°C, 48 h): only weak inhibition

7-methoxy-8-[3-methylpent-2-enyl] coumarin [Ost]
antifungal activity when tested alone [1]: weak antifungal activity | MIC80 alone ([1]; isolate 32): 64 mg/L | MIC80 in combination ([1]; isolate 32): 4 mg/L | MIC80 alone ([1]; isolate 100): 32 mg/L | MIC80 in combination ([1]; isolate 100): 4 mg/L | MIC80 alone ([1]; isolate 103): 64 mg/L | MIC80 in combination ([1]; isolate 103): 4 mg/L | MIC80 alone ([1]; isolate 557): 64 mg/L | MIC80 in combination ([1]; isolate 557): 2 mg/L | MIC80 alone ([1]; isolate 842): 64 mg/L | MIC80 in combination ([1]; isolate 842): 2 mg/L | MIC80 alone ([1]; isolate 901): 16 mg/L | MIC80 in combination ([1]; isolate 901): 4 mg/L | MIC80 alone ([1]; isolate 904): >64 mg/L | MIC80 in combination ([1]; isolate 904): 4 mg/L | MIC80 alone ([1]; isolate 953): 32 mg/L | MIC80 in combination ([1]; isolate 953): 4 mg/L | MIC80 alone ([1]; isolate J5): 64 mg/L | MIC80 in combination ([1]; isolate J5): 8 mg/L | MIC80 alone ([1]; isolate J28): 64 mg/L | MIC80 in combination ([1]; isolate J28): 8 mg/L | MIC80 alone ([1]; isolate J35): 32 mg/L | MIC80 in combination ([1]; isolate J35): 8 mg/L | MIC80 alone (C. albicans ATCC 90028; 35 °C, 24 h): 8 mg/L | MIC80 in combination (C. albicans ATCC 90028): 1 mg/L | mean diameter of the inhibitory zone (C. albicans 103 [3]; 8 μg Ost disk on YEPD plate containing 64 μg/ml FLC): 8 mm | mean diameter of the inhibitory zone (C. albicans 103 [3]; 16 μg Ost disk on YEPD plate containing 64 μg/ml FLC): 12 mm | mean diameter of the inhibitory zone (C. albicans 103 [3]; 32 μg Ost disk on YEPD plate containing 64 μg/ml FLC): 16 mm | mean diameter of the inhibitory zone (C. albicans 103 [3]; 64 μg Ost disk on YEPD plate containing 64 μg/ml FLC): 21 mm | anti-fungal activity, disk on plain agar (C. albicans 103 [3]; 64 μg, 35°C, 48 h): weak anti-fungal activity | anti-fungal activity, disk on plain agar (C. albicans 103 [3]; smaller dosage (below 64 μg), 35°C, 48 h): no anti-fungal activity
